Like-named read-outs stand apart in the source and are kept apart here.
System: MDD patients carrying the indicated conditions
Conditions: with SSRI
Method: Folate levels are classified as either low (<=2.5 ng/ml) or normal; and homocysteine levels as either normal or elevated (>=[…]). The presence or absence of at least one […] allele for the MTHFR gene are entered as a dichotomous variable (present or absent). […] Using folate as an example predicator, the presence or absence of a low serum-folate level along with treatment assignment can be entered in a 2×2, factorial ANOVA, using depression improvement scores (baseline minus endpoint HAM-D-17 scores) as the dependant variable. […] Similar analyses (i.e. separate 2×2 ANOVA's) can be performed substituting the presence of low folate levels for the presence of other predictors as described herein. Similarly, the effect of other predictors can be indicated by the interaction term representing the potential modulating influence of those variables.
Particularly, specific genetic and biomarkers that were assessed include the following: • (a) BMI calculation of at least about 30 kg/m^2; • (b) an expression ratio of SAM/SAH smaller than 2.8 (e.g., 2.71) as measured in a plasma sample; • (c) a level of 4-HNE no less than 3.28 μg/mL (as measured in a plasma sample); • (d) presence of rare variants CT or TT at position 677 of SEQ ID NO: 1 corresponding to a portion of a genomic nucleic acid sequence of methylenetetrahydrofolate reductase (MTHFR) (abbreviated as “MTHFR 677” below); • (e) presence of rare variants AG or GG at position 2756 of SEQ ID NO: 2 corresponding to a portion of genomic nucleic acid sequence of methionine synthase (MTR) (abbreviated as “MTR 2756” below); and • (f) presence of rare variants AG or GG at position 66 of SEQ ID NO: 3 corresponding to a portion of genomic nucleic acid sequence of methionine synthase reductase (MTRR) (abbreviated as “MTRR 66” below).
The efficacy effect is determined by measuring the mean change in the HAMD-17 score and HAMD-28 score by the end of Phase I and Phase II, as compared to the baseline.

[1] = Phase I, interaction of BMI with the treatment
[2] = Phase I, interaction of HNE-his with the treatment
[3] = Phase I, interaction of SAM/SAH with the treatment
[4] = Phase II, 25 =< BMI < 30 kg/m^2 (18, 10)

## CN1c2c(nc(N)[nH]c2=O)NC[C@@H]1CNc1ccc(C(=O)N[C@@H](CCC(=O)O)C(=O)O)cc1 [6(S)-5-MTHF, 6(S)-5-methyltetrahydrofolate]
Phase I, MTRR 66 AA and HNE-His < median (8,5)
  Effect, change in HAMD-17 score: −1.167
Phase I, MTRR 66 AA and HNE-His < median = 3.28 (plasma sample)
  Effect, change in HAMD-28 score: −4.167
Phase I, MTRR 66 AA and SAM/SAH >= median (9,6)
  Effect, change in HAMD-17 score: −0.125
Phase I, MTRR 66 AA and SAM/SAH >= median
  Effect, change in HAMD-28 score: 0.500
Phase I, MTRR 66 AG or GG and HNE-His >= median (24,11)
  Effect, change in HAMD-17 score: −5.958
Phase I, MTRR 66 AG or GG and HNE-His >= median
  Effect, change in HAMD-28 score: −6.975
Phase I, MTRR 66 AG or GG and SAM/SAH < median (24,10)
  Effect, change in HAMD-17 score: −5.062
Phase I, MTRR 66 AG or GG and SAM/SAH < median = 2.71 (plasma sample)
  Effect, change in HAMD-28 score: −6.498
Phase I, SAM/SAH < median and HNE-His >= median (19,7)
  Effect, change in HAMD-17 score: −3.670
Phase I, SAM/SAH < median and HNE-His >= median
  Effect, change in HAMD-28 score: −4.227
Phase I, SAM/SAH >= median and HNE-His < median (18,8)
  Effect, change in HAMD-17 score: −0.250
Phase I, SAM/SAH >= median and HNE-His < median
  Effect, change in HAMD-28 score: −0.750
[1]
  Effect, change in HAMD-17 score: BMI*treat: −0.567
  Effect, change in HAMD-28 score: BMI*treat: −0.668
[2]
  Effect, change in HAMD-17 score: HNE-his*treat: −0.465
  Effect, change in HAMD-28 score: HNE-his*treat: −0.133
[3]
  Effect, change in HAMD-17 score: SAM/SAH*treat: 0.495
  Effect, change in HAMD-28 score: SAM/SAH*treat (last line): 0.972
Phase I, interaction of base HAMD-17 with the treatment
  Effect, change in HAMD-17 score: baseHAMD-17*treat: 0.165
Phase I, interaction with the treatment
  Effect, change in HAMD-28 score: SAM/SAH*treat (first line under HAMD28): 0.495
[4]
  Effect, change in HAMD-17 score: 2.000
  Effect, change in HAMD-28 score: 0.000
Phase II, BMI < 25 (14, 7)
  Effect, change in HAMD-17 score: −1.400
  Effect, change in HAMD-28 score: −2.300
Phase II, BMI < 30 kg/m^2 and HNE-His < median (19, 9)
  Effect, change in HAMD-17 score: 3.667
Phase II, BMI < 30 kg/m^2 and HNE-His < median
  Effect, change in HAMD-28 score: 1.833
Phase II, BMI < 30 kg/m^2 and SAM/SAH >= median (16,8)
  Effect, change in HAMD-17 score: 1.500
Phase II, BMI < 30 kg/m^2 and SAM/SAH >= median
  Effect, change in HAMD-28 score: 2.500
Phase II, BMI >= 30 kg/m^2 (40,21)
  Effect, change in HAMD-28 score: −3.245
Phase II, BMI >= 30 kg/m^2 and HNE-His >= median (23, 11)
  Effect, change in HAMD-17 score: −4.233
Phase II, BMI >= 30 kg/m^2 and HNE-His >= median
  Effect, change in HAMD-28 score: −4.933
Phase II, BMI >= 30 kg/m^2 and SAM/SAH < median (21,9)
  Effect, change in HAMD-17 score: −9.200
Phase II, BMI >= 30 kg/m^2 and SAM/SAH < median = 2.71 (plasma sample)
  Effect, change in HAMD-28 score: −10.350
Phase II, MTHFR 677 CC and BMI < 30 kg/m^2 (17,8)
  Effect, change in HAMD-17 score: −2.267
Phase II, MTHFR 677 CC and BMI < 30 kg/m^2
  Effect, change in HAMD-28 score: −3.000
Phase II, MTHFR 677 CC and HNE-His < median (20,11)
  Effect, change in HAMD-17 score: −0.857
Phase II, MTHFR 677 CC and HNE-His < median = 3.28 (plasma sample)
  Effect, change in HAMD-28 score: −0.536
Phase II, MTHFR 677 CC and MTR 2756 AA (29,13)
  Effect, change in HAMD-17 score: −0.571
Phase II, MTHFR 677 CC and MTR 2756 AA
  Effect, change in HAMD-28 score: 0.048
Phase II, MTHFR 677 CT or TT and BMI >= 30 kg/m^2 (13,6)
  Effect, change in HAMD-17 score: −7.333
Phase II, MTHFR 677 CT or TT and BMI >= 30 kg/m^2
  Effect, change in HAMD-28 score: −8.667
Phase II, MTHFR 677 CT or TT and HNE-His >= median (11,6)
  Effect, change in HAMD-17 score: −7.500
Phase II, MTHFR 677 CT or TT and HNE-His >= median
  Effect, change in HAMD-28 score: −7.500
Phase II, MTHFR 677 CT or TT and MTR 2756 AG or GG (8,4)
  Effect, change in HAMD-17 score: −10.33
Phase II, MTHFR 677 CT or TT and MTR 2756 AG or GG
  Effect, change in HAMD-28 score: −13.00
Phase II, MTR 2756 AA (45,21)
  Effect, change in HAMD-17 score: −0.427
Phase II, MTR 2756 AA and BMI < 30 kg/m^2 (17,7)
  Effect, change in HAMD-17 score: 1.167
Phase II, MTR 2756 AA and BMI < 30 kg/m^2
  Effect, change in HAMD-28 score: 0.917
Phase II, MTR 2756 AA and HNE-His < median (26,13)
  Effect, change in HAMD-17 score: 0.300
Phase II, MTR 2756 AA and HNE-His < median
  Effect, change in HAMD-28 score: −0.125
Phase II, MTR 2756 AA and MTRR 66 AA (11,5)
  Effect, change in HAMD-17 score: −8.000
Phase II, MTR 2756 AA and MTRR 66 AA and BMI < 30 kg/m^2 (7,4)
  Effect, change in HAMD-17 score: −4.333
Phase II, MTR 2756 AA and MTRR 66 AA and BMI < 30 kg/m^2
  Effect, change in HAMD-28 score: −4.667
Phase II, MTR 2756 AA and MTRR 66 AA and HNE-His < median (6,4)
  Effect, change in HAMD-17 score: −8.667
Phase II, MTR 2756 AA and MTRR 66 AA and HNE-His < median = 3.28 (plasma sample)
  Effect, change in HAMD-28 score: −9.000
Phase II, MTR 2756 AA and MTRR 66 AA and SAM/SAH >= median (6,3)
  Effect, change in HAMD-17 score: −7.000
Phase II, MTR 2756 AA and MTRR 66 AA and SAM/SAH >= median
  Effect, change in HAMD-28 score: −7.500

Reference: patent US9540691B2, “Assays and methods for selecting a treatment regimen for a subject with depression” (THE GENERAL HOSPITAL CORPORATION, priority 2011, dated 2017)
